# Measured values from ChEMBL document CHEMBL5726136, “Heterocyclic compounds and methods for their use” (2017).
# Molecular target: T1, Type-2 angiotensin II receptor (Homo sapiens, UniProt P50052)
# T1 sequence (P50052 whole entry): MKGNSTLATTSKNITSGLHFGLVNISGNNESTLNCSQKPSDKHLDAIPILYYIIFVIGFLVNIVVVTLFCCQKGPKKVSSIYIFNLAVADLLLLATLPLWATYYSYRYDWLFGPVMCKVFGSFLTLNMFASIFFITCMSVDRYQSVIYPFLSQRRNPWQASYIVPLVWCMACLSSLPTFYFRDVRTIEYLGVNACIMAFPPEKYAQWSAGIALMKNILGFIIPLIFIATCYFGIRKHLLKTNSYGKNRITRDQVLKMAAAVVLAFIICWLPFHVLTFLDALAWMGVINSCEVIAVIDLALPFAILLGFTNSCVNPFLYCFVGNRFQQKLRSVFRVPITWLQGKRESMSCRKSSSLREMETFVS
# Experiment: Receptor Binding Assay: 120 μL membrane (5 mg protein/well) was incubated with 15 μL of [125I]-CGP42112A and 15 μL of compound at RT for 1.5 hrs.The binding reaction was stopped by rapid filtration through Unifilter GF/C plates (presoaked in 0.3% (v:v) BSA).Plate was washed three times with ice cold wash buffer.The filtration plates were dried at 37° C. overnight.50 μL of scintillation cocktail was added to each well.Radioactivity was determined using MicroBetaTriluxmicroplate scintillation counter.
row,Compound,IC50 [nM]
1,CC(C)C#CCN(C)[C@@H]1CCN(C(=O)C(c2ccccc2)c2ccccc2)[C@H](C(=O)O)C1,153
2,O=C(O)[C@@H]1C[C@H](OCC#Cc2ccc(F)cc2)CCN1C(=O)C(c1ccccc1)c1ccccc1,228
3,O=C(O)[C@@H]1C[C@H](OCc2ccccc2)CCN1C(=O)C(c1ccccc1)c1ccccc1,76.7
4,CC(C)C#CCN(C)[C@H]1CCN(C(=O)C(c2ccccc2)c2ccccc2)[C@H](C(=O)O)C1,354
